Assay [1] has as its target MAGI2_2 PDZ (Homo sapiens, UniProt Q86UL8). Description: Competitive fluorescence polarization (FP) assay. In kind it is binding. To be noted: read-out: pKd FP (converted). (In fluorescence polarisation assays a small probe gives low polarisation when free and higher when bound to something large.)
Assay [2] addresses DLG4_3 PDZ (Homo sapiens, UniProt P78352). Briefly: Competitive fluorescence polarization (FP) assay. In kind it is binding. The settings on record: read-out: pKd FP (converted).
For assay [3], the target named is DLG1_1 PDZ (Homo sapiens, UniProt Q12959). Description: Holdup assay. In kind it is binding.
Assay [4] deals with SCRIB_1 PDZ (Homo sapiens, UniProt Q14160). Description: Holdup assay. It is filed as binding.
Assay [5] deals with T1, TX1BP3 PDZ (Homo sapiens, UniProt O14907).
T1 sequence (O14907 15-112 limits assumed): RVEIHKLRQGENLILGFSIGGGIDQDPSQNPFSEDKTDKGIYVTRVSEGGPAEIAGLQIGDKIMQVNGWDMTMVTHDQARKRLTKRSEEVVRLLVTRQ
Description: Holdup assay. It is filed as binding.

Assay [6] has as its target DLG1_2 PDZ (Homo sapiens, UniProt Q12959). Briefly: Holdup assay. In kind it is binding.
In assay [7] the target is SNX27 PDZ (Homo sapiens, UniProt Q96L92). Description: Holdup assay. It is filed as binding.
The target in assay [8] is T2, SCRIB2 PDZ (Homo sapiens, UniProt Q14160).
T2 sequence (Q14160 862-950 limits assumed): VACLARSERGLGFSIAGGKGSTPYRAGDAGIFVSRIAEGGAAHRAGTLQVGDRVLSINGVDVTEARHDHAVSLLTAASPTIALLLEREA
Briefly: Holdup assay. It is filed as binding.

The test system of assay [9] is HaCat cell extract preys. Description: PDZ-AP-MS, biotinylated MBP-PDZ baits. In kind it is binding, human. To be noted: for Difference log2: enrichment of prey. Here is the method:
(§1) For PDZ-AP-MS experiments, PDZ domains were cloned as His6-AviTag-MBP-PDZ constructs. For co-expression with BirA, E. coli BL21(DE3) cells were co-transformed with His6-AviTag-MBP, or His6-AviTag-MBP-PDZ-coding and PET21a-BirA (Addgene #20857) plasmids. Simultaneously to IPTG induction, 50 µM biotin was added to the media. After cell harvesting, the lysis buffer was also supplemented with 50 µM biotin. Otherwise, expression and double affinity purification was identical as previously described in details.
(§2) For PBM-AP-MS experiments, 30 μl streptavidin resin was mixed with biotin or peptide at 50–60 μM concentration in 6–6.5 resin volume for 60 min to achieve resin saturation. For PDZ-AP-MS experiments, 30 μl streptavidin resin was mixed with biotinylated MBP or MBP-PDZ at 40-50 μM concentration in >1000× resin volume for 60 min to achieve resin saturation. After saturation, resins were washed a single time (ten resin volume, holdup buffer), and were depleted with biotin (1 mM biotin, 5–10 resin volume, 10 min). Finally, resins were washed two times. 0.5 ml 2 mg/ml cell lysate was added to the dry resin (1 mg total input) and were incubated at 4 °C for 2 h. Then, the beads were washed three times with 10 resin volume buffer containing: 50 mM TRIS pH 8.5, 150 mM NaCl, 1% TritonX-100, 10× complete EDTA-free protease inhibitor cocktail, 2 mM EDTA, 1 mM TCEP. Then, the beads were washed two times with ten resin volume buffer containing: 50 mM TRIS pH 8.5, 150 mM NaCl, 1 mM TCEP. Finally, captured protein was eluted from the resin in two steps and the eluted fractions were pooled. For each elution the beads were incubated for 30 min with three resin volume buffer containing: 20 mM TRIS pH8.5, 100 mM NaCl, 500 μM TCEP, 8 M Urea. Between each step, the beads were separated by mild centrifugation and the supernatant was removed by gentle pipetting.
(§3) The samples were precipitated with TCA 20% overnight at 4 °C and centrifuged at 14,000 rpm for 10 min at 4 °C. The protein pellets were washed twice with 1 mL cold acetone and air dried. The protein extracts were solubilized in urea 8 M, reduced with 5 mM TCEP for 30 min, and alkylated with 10 mM iodoacetamide for 30 min in the dark. Double digestion was performed at 37 °C with 500 ng endoproteinase Lys-C for 4 h, followed by fourfold dilution and an overnight digestion with 500 ng trypsin. Peptide mixtures were then desalted on C18 spin-column and dried on Speed-Vacuum.
(§4) Samples were analyzed using an Ultimate 3000 nano-RSLC (Thermo Scientific, San Jose California) coupled in line with a LTQ-Orbitrap ELITE mass spectrometer via a nano-electrospray ionization source (Thermo Scientific, San Jose California). Peptide mixtures were injected in 0.1% TFA on a C18 Acclaim PepMap100 trap-column (75 µm ID × 2 cm, 3 µm, 100 Å, Thermo Fisher Scientific) for 3 min at 5 µL/min with 2% ACN, 0.1% FA in H2O and then separated on a C18 Accucore nano-column (75 µm ID × 50 cm, 2.6 µm, 150 Å, Thermo Fisher Scientific) at 220 nl/min and 38 °C with a 90 min linear gradient from 5% to 30% buffer B (A: 0.1% FA in H2O/B: 99% ACN, 0.1% FA in H2O), regeneration at 5% B. The mass spectrometer was operated in positive ionization mode, in data-dependent mode with survey scans from m/z 350–1500 acquired in the Orbitrap at a resolution of 120,000 at m/z 400. The 20 most intense peaks from survey scans were selected for further fragmentation in the Linear Ion Trap with an isolation window of 2.0 Da and were fragmented by CID with normalized collision energy of 35%. (TOP20CID method) Unassigned and single charged states were excluded from fragmentation. The Ion Target Value for the survey scans (in the Orbitrap) and the MS2 mode (in the Linear Ion Trap) were set to 1E6 and 5E3 respectively and the maximum injection time was set to 100 ms for both scan modes. Dynamic exclusion was set to 20 s after one repeat count with mass width at ±10 ppm. […]

For assay [10], the system named is HeLa cell extract preys. Description: PDZ-AP-MS, biotinylated MBP-PDZ baits. It is filed as binding, human. To be noted: for Ratio: fold enrichment of prey; for Difference: log2 enrichment of prey. Here is the method: as §1, §2, §3, §4
The target in assay [11] is T3, SYNJ2BP PDZ (Homo sapiens, UniProt P57105).
T3 sequence (P57105 13-100 limits assumed): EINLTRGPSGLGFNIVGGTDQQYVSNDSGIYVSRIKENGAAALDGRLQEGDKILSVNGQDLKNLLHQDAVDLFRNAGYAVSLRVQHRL
Description: Holdup assay. In kind it is binding.

Assay [12] concerns Jurkat cell extract preys. Briefly: PDZ-AP-MS, biotinylated MBP-PDZ baits. The settings on record: for Difference log2: enrichment of prey. In kind it is binding, human. As to the method:
as §1, §2, §3, §4

[13] abbreviates: PBM motif of the named protein vs DLG1_1 PDZ, read-out: pKd values – domain-motif, DLG1_1 (converted).
Setting [14] is: PBM motif of the named protein vs SCRIB_1 PDZ, read-out: pKd values – domain-motif, SCRIB_1 (converted).
Where [15] appears, read: PBM motif of the named protein vs TX1BP3 PDZ, read-out: pKd values – domain-motif, TX1BP3 (converted).
Where [16] appears, read: PBM motif of the named protein vs DLG1_2 PDZ, read-out: pKd values – domain-motif, DLG1_2 (converted).
[17] abbreviates: PBM motif of the named protein vs SCRIB_2 PDZ, read-out: pKd values – domain-motif, SCRIB_2 (converted).
Where [18] appears, read: bait SCRIB_2 PDZ, fold change of prey.
Where [19] appears, read: holdup affinity of the PBM peptide of the named protein, sheet PBMcomplexome, lower sub-table, 3.5 appears to be the floor for no detectable binding, read-out: affinity of PBM to TX1BP3 (pKd) (converted).
Setting [20] is: holdup affinity of the PBM peptide of the named protein, sheet PBMcomplexome, lower sub-table, 3.5 appears to be the floor for no detectable binding, read-out: affinity of PBM to DLG1_2 (pKd) (converted).
The mark [21] stands for this setting: holdup affinity of the PBM peptide of the named protein, sheet PBMcomplexome, lower sub-table.
Where [22] appears, read: bait SCRIB_1 PDZ, fold change of prey.

From paper PMC9482650, “Quantitative fragmentomics allow affinity mapping of interactomes” (Nature Communications, 2022) come the findings set out here.

Where two headings read alike, the source gives them in different places. Numbered stars: 1 amine (or outer) side, 2 acyl side, 3 side chain; on linkers, the order of the positions; unused ones are H or OH. Ends that are not written are not given here. Peptide text beside a SMILES is read from it. * marks the point of attachment. X1 = O=C(CCCC[C@@H]1SC[C@@H]2NC(=O)N[C@@H]21)NCCCOCCOCCOCCCN*; Suc = O=C(CCC(=O)[*:2])[*:1]

SCRIB_1 PDZ, sequence (Q14160 728-815 limits assumed): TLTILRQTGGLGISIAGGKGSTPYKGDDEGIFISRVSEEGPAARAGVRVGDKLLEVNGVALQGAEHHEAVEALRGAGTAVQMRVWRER
MAGI2_2 PDZ, sequence (Q86UL8 426-510 limits assumed): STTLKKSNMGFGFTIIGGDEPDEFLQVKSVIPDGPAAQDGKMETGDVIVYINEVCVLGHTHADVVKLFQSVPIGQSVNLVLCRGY
DLG4_3 PDZ, sequence (P78352 313-393 limits assumed): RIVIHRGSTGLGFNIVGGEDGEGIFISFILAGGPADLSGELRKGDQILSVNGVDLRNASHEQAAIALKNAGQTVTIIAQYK

Take `CC(C)C[C@H](NC(=O)[C@H](CCC(N)=O)NC(=O)[C@@H](NC(=O)[C@H](CCC(=O)O)NC(=O)[C@H](CCC(=O)O)NC(=O)[C@H](CCCNC(=N)N)NC(=O)[C@H](CO)NC(=O)[C@H](CC(=O)O)NC(=O)[C@H](CCC(N)=O)NC(=O)CNC(=O)CCC(=O)NCCCOCCOCCOCCCNC(=O)CCCC[C@@H]1SC[C@@H]2NC(=O)N[C@@H]21)[C@@H](C)O)C(=O)O` [KCNT2] ({X1-Suc}-GQDSREETQL-OH): the values for the Kd in assay [1] and in assay [2] were 248 µM and 241 µM, respectively.
ATKDKKITTV [EXOC4]: the Kd in [3] (setting [13]) was 8.91 µM; in assay [4] (setting [14]), 141 µM; in assay [5] (setting [15]), 123 µM; in assay [6] (setting [16]), 1.23 µM; in [7], 41.7 µM; in assay [8] (setting [17]), 324 µM.
For EKQAKGDTEF [CACYBP], the Kd in assay [7] was 209 µM.
Take EPRS1: in assay [9] (bait SCRIB_2 PDZ vs MBP), the “Difference log2” value came out at 4.198. Also, the “Ratio SCRIB_2/MBP” value in assay [9] (setting [18]) worked out at 18.3552.
Take GFGEERESIL [KIDINS220]: the Kd in [5] (setting [19]) is 186 µM; in assay [6] (setting [20]), 132 µM; in [7] (setting [21]), 2.57 µM.
As to IDNDTESTAL [ARHGAP17], the Kd is 12.3 µM in assay [4] (setting [14]), 10.7 µM in assay [7] and 245 µM in assay [8] (setting [17]).
Turning to IQREDQETAV [DGKZ], the Kd in assay [3] (holdup affinity of the PBM peptide of the named protein, sheet PBMcomplexome, lower sub-table, 3.5 appears to be the floor for no detectable binding, read-out: affinity of PBM to DLG1_1 (pKd) (converted)) is 18.6 µM; in assay [4] (holdup affinity of the PBM peptide of the named protein, sheet PBMcomplexome, lower sub-table, 3.5 appears to be the floor for no detectable binding, read-out: affinity of PBM to SCRIB_1 (pKd) (converted)), 19.5 µM; in assay [5] (setting [19]) it was 66.1 µM; in assay [6] (setting [20]) it was 6.92 µM; in [7] (setting [21]) it was 1 µM; in [8] (holdup affinity of the PBM peptide of the named protein, sheet PBMcomplexome, lower sub-table, 3.5 appears to be the floor for no detectable binding, read-out: affinity of PBM to SCRIB_2 (pKd) (converted)) it was 13.8 µM.
With KKYVDAETSL [SLC4A7], the Kd is 2.88 µM in assay [4] (setting [14]); 151 µM in [5] (setting [15]); 275 µM in [6] (setting [16]); 1.95 µM in [7]; 170 µM in assay [8] (setting [17]).
As to LSEFKAMDSI [CTNNA1], the Kd in [5] (setting [15]) is 339 µM.
In the case of PLEC, in [10] (bait TX1BP3 PDZ vs MBP control), the Ratio was 24.4238 and the Difference is 4.61.
QPRTWLQSPV [RTKN]: the Kd is 182 µM in assay [3] (setting [13]); 204 µM in assay [4] (setting [14]); 0.891 µM in [5] (setting [15]); 50.1 µM in assay [6] (setting [16]); 49 µM in assay [7].
On to QRQARSETLV [HPV59E6], for which the Kd in assay [11] was 15.4 µM.
Take SCRIB: the entries for the “Difference log2” value in [12] (bait SCRIB_1 PDZ vs MBP), in assay [12] (bait SCRIB_2 PDZ vs MBP) and in [9] (bait SCRIB_1 PDZ vs MBP) were 8.3787, 8.333 and 13.0145, respectively. For the same compound, the “Ratio SCRIB_1/MBP” value in [12] (setting [22]) turned out to be 332.843; in assay [9] (setting [22]) it was 8274.77. Besides, the “Ratio SCRIB_2/MBP” value in assay [12] (setting [18]) is given as 322.542. For the same compound, the Difference in assay [10] (bait SCRIB_2 PDZ (biotinylated MBP-PDZ) vs MBP control) is listed as 6.449. In assay [10] (bait SCRIB_2 PDZ vs MBP control), the Ratio is listed as 87.3698.
In [11], SEKHFRETEV [HTLV1 Tax1] had a Kd of 0.912 µM.
On to SRPHTNETSL [MCC], for which the Kd in [3] (setting [13]) was 191 µM; in assay [4] (setting [14]), 5.5 µM; in [5] (setting [15]), 75.9 µM; in [6] (setting [16]) it was 64.6 µM; in assay [7], 1.91 µM; in assay [8] (setting [17]), 52.5 µM.
For TVASEKESVM [SLC1A5], the values for the Kd in assay [4] (setting [14]), in assay [5] (setting [15]) and in assay [7] were 6.31 µM, 204 µM and 5.13 µM, respectively.
Consider VKPQVSESKL [ACOT8], for which the Kd in assay [4] (setting [14]) was 47.9 µM; in assay [7] it was 4.57 µM; in assay [8] (setting [17]), 302 µM.
